The numbers were not newly measured in patent US20050181001A1, “Topical formulation for insect repellents” (priority 2003, published 2005), which cites them from elsewhere.

Series [1] has as its system mosquitoes.
Series [2] concerns mosquitoes. The following applies: oral.

For `CC1=COC(=O)C2C(C)CCC12` (stereo not drawn) [nepetalactone], in series [1], the “effectiveness at repelling mosquitoes relative to DEET” value is reported as “more effective at repelling mosquitoes than DEET”.
Turning to `Cc1ncc(C[n+]2csc(CCO)c2C)c(N)n1` [thiamine], in series [2], the “time before the odor fully saturates the skin and becomes effective” value was “up to 2 weeks”. In series [2] (25 to 50 mg three times per day), the “reduction of mosquito bites” value is recorded as “effective in reducing mosquito bites”.
